Reference: ChEMBL document CHEMBL1201862, “PubChem BioAssay data set” (2004)
Active and inactive are the calls of the source.

What was measured:
[1] = NIH-3T3 fibroblast cytotoxicity, dose response, cytotoxicity control, cell-based, fluorescence, Alamar Blue, secondary assay (AID 2327); type: functional;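 further: NIH-3T3 mouse fibroblasts cultured with fluconazole at 8 µg/mL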
[2] = target: Paired box protein Pax-8 (Homo sapiens, UniProt Q06710); experiment: PAX8 transcriptional activity inhibition in RMG-I – RMG-I cells, luciferase, cherry-pick, dose response (AID 687027); type: functional, cell-based;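 further: luciferase reporter driven by Pax8 target thyroperoxidase promoter measured by SteadyGlo luminescence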
[3] = non-specific 3'UTR reporter inhibition in Clone20-Shn3RL – cell-based, Renilla luciferase, cherry-picked, counter-screen for Shn3 inhibitor project, dose response (AID 624133); type: functional
[4] = reduction of Shn3 3'UTR-driven luciferase in osteoblasts – cell-based, Clone20 osteoblasts, firefly luciferase, cherry-picked, dose response (AID 624132); type: functional;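 further: firefly luciferase luminescence from reporter carrying the Shn3 3'UTR in osteoblasts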
[5] = target: T1, Short transient receptor potential channel 4 (Mus musculus, UniProt Q9QUQ5); experiment: block of DAMGO-driven TRPC4 calcium entry – cell-based, HEK293 TRPC4/mu-opioid, Fluo-4 calcium, dose response (AID 434942); type: functional;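 further: potency of inhibitors blocking the TRPC4 calcium response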
T1 sequence (Q9QUQ5 whole entry): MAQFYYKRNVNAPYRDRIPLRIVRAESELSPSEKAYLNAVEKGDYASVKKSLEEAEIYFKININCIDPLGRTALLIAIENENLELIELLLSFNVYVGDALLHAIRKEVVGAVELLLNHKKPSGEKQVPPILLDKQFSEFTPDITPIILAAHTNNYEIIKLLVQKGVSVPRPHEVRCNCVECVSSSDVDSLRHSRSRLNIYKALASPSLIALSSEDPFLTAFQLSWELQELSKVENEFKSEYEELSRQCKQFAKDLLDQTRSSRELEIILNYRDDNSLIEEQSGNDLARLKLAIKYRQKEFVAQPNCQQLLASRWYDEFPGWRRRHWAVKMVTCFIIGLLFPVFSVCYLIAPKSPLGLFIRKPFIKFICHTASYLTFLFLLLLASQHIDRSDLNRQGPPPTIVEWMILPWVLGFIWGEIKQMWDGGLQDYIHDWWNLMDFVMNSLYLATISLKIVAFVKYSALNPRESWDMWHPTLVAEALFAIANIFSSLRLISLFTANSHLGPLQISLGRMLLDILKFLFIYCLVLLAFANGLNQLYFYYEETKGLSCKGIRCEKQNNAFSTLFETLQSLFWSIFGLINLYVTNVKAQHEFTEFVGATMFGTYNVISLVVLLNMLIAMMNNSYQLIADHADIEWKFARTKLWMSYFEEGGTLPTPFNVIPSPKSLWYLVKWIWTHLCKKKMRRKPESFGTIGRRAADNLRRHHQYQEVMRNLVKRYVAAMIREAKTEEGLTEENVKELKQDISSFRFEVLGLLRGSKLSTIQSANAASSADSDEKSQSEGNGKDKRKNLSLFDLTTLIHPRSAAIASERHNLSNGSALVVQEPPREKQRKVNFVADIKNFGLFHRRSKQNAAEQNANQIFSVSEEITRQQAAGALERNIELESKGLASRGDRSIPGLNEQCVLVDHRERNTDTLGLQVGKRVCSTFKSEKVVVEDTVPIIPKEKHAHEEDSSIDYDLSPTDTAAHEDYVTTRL

[6] = NIH3T3 cell viability loss – ATP luminescence, mouse fibroblasts, counter-screen, dose response (AID 2010); type: functional, cell-based;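 further: cells exposed to compound for about 90 hours before reading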
[7] = Trypanosoma cruzi growth suppression in host cells – NIH3T3 host cells, beta-gal luminescence, confirmation (AID 2044); type: functional, cell-based;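 further: intracellular parasites grown in NIH/3T3 mouse fibroblasts as host cells; luminescent beta-galactosidase reporter signal from transgenic T. cruzi replicating inside host cells; inhibitors lower the luminescence signal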
[8] = target: T2, Heat shock factor protein 1 (Mus musculus, UniProt P38532); experiment: enhancement of HSF1-driven luciferase signal – cell-based, NIH3T3, luminescence, dose retest, confirmation (AID 435004); type: functional;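 further: stress induced by proteasome inhibitor MG132 added 30 min after compound; luciferase reporter driven by HSF1 response element in NIH3T3 cells; actives raise luminescence as potentiators of the MG132 stress response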
T2 sequence (P38532 whole entry): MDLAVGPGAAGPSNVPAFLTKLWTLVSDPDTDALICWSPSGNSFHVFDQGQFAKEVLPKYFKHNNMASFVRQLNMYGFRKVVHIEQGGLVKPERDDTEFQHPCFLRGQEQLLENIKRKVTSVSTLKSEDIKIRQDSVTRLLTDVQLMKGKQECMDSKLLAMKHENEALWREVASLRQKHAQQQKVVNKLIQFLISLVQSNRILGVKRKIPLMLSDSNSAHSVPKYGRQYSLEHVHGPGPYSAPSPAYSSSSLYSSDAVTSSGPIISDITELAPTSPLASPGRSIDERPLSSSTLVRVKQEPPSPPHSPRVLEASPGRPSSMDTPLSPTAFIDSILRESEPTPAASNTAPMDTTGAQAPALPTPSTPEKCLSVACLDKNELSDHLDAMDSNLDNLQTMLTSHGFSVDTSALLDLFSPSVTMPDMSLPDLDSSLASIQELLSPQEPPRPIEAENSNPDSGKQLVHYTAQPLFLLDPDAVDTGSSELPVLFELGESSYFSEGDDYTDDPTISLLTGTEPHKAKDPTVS

[9] = target: Large T antigen (Simian virus 40, UniProt P03070); type: functional, Betapolyomavirus macacae;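 further: Confirmatory-stage PubChem screen for compounds that inhibit SV40 T antigen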
[10] = Luminescence Cell-Based Dose Retest to Confirm Inhibitors of Cancer Stem Cells. [Related pubchem assays (depositor defined):AID2717, AID2721]; type: functional; details: Homo sapiens
[11] = system: INS1; experiment: INS-1E survival protection against cytokine death – cell-based, luminescence, retest, dose response (AID 449756); type: functional; details: Rattus norvegicus;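 further: cell death triggered by IL-1 beta plus TNF-alpha plus IFN-gamma mixture; protective hits raise ATP signal compared with cytokine alone wells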
[12] = Luminescence Cell-Based Dose Confirmation HTS to Identify Inhibitors of Platelet Dense Granule Release. [Related pubchem assays: 1663 (Primary HTS), 1678 (Summary of Project)]; type: functional
[13] = target: Luciferin 4-monooxygenase (Photinus pyralis, UniProt P08659); experiment: inhibition of purified Photinus pyralis luciferase – biochemical, luminescence, dose response (AID 1891)
[14] = blockers of HIV-1 envelope-mediated cell-cell fusion – cherry-pick, dose response (AID 652057); type: functional, cell-based
[15] = HIV-1 AD8 envelope cell-cell fusion blockers – cherry-pick, dose response (AID 652062); type: functional, cell-based;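 further: luciferase signal from cell-cell fusion driven by HIV-1 clade B AD8 Env; potency is for inhibitors of fusion seen as a drop in luminescence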
[16] = system: Streptococcus sp. 'group A'; experiment: Streptococcus pyogenes SK(-)GAS viability under kanamycin – luminescence, BacTiterGlo, confirmation, counter-screen for streptokinase expression inhibitor project, dose response (AID 1900); type: functional, organism-based
[17] = target: T3, Streptokinase A (Streptococcus pyogenes serotype M1, UniProt P10520); experiment: viability-normalized secreted streptokinase activity reduction – plasminogen activation absorbance, OD405, dose response (AID 1914); type: functional, Streptococcus pyogenes M1 GAS;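 further: secreted streptokinase activity via plasminogen activation per viability signal from cell pellet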
T3 sequence (P10520 whole entry): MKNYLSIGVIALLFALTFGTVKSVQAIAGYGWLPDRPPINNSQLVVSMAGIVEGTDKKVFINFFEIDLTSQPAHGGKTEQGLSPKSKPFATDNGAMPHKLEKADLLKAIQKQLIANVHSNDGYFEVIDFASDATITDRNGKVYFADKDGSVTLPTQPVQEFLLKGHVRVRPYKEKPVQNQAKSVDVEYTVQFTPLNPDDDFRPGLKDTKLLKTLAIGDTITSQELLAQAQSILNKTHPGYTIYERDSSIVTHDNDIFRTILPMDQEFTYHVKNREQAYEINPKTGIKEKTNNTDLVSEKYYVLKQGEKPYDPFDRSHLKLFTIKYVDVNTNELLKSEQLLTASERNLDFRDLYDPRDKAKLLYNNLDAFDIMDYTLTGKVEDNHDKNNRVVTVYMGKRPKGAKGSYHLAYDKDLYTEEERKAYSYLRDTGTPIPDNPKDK

[18] = system: Streptococcus; experiment: GAS UMAA2166 growth inhibition – luminescence, BacTiterGlo, counter-screen for streptokinase expression inhibitor project, dose response (AID 1915); type: functional, organism-based;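 further: potency for reduction of bacterial viability or growth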

Sequence of Large T antigen (P03070 whole entry): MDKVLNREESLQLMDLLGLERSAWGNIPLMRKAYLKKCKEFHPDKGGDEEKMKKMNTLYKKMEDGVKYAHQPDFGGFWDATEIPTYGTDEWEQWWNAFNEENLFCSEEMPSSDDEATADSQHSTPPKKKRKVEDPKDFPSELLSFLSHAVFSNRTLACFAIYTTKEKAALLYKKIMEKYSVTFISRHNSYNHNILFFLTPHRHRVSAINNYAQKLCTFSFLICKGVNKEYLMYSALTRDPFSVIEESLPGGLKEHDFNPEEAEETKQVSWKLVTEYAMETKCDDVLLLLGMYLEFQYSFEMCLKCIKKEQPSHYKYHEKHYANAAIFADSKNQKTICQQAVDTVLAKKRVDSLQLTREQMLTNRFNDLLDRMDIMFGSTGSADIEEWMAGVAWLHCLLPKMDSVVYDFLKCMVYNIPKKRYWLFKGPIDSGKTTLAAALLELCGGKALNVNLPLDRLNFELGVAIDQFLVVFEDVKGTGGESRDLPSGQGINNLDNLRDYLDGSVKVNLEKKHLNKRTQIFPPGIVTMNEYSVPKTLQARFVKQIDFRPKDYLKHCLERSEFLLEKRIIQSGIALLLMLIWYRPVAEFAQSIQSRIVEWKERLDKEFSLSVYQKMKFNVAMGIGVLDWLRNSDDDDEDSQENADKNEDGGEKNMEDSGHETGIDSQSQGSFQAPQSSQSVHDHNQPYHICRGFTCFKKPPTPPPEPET
Sequence of Paired box protein Pax-8 (Q06710 whole entry): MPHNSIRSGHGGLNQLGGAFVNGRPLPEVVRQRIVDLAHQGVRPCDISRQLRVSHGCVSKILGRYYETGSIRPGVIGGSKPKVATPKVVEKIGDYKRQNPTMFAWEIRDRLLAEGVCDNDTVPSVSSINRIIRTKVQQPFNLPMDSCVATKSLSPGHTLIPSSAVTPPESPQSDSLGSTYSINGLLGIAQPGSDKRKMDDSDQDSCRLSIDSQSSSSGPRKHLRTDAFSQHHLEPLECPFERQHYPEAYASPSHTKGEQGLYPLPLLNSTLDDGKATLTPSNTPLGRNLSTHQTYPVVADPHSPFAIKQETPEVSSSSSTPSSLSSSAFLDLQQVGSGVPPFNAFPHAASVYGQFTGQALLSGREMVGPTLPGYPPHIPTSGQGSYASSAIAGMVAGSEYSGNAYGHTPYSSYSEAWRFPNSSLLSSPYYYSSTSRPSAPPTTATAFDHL
Sequence of Luciferin 4-monooxygenase (P08659 whole entry, the tested form may be a part): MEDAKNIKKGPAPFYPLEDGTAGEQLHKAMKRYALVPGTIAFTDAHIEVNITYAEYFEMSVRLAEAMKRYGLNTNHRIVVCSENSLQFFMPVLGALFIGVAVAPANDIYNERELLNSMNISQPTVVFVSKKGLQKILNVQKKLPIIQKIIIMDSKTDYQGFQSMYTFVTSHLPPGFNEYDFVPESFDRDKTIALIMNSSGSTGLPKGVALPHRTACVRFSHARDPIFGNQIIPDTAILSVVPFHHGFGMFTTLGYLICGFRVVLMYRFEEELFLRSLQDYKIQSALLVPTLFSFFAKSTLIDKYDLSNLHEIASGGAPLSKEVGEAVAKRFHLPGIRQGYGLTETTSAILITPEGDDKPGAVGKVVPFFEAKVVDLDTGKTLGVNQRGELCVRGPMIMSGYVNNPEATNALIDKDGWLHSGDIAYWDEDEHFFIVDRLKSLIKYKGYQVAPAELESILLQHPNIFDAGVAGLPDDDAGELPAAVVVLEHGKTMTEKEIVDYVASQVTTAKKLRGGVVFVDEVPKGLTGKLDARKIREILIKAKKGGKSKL

In the case of `CCc1ccc(CNC(=O)C2CCCN(c3nnc(C)c4c(C)n(-c5ccccc5)nc34)C2)cc1` (centres undefined), the EC50 [1] is reported as 14.7 µM (inconclusive) and the AC50 [2] is reported as 9.17 µM (active).

In the case of `N#C/C(=C(\O)Cc1ccccc1)c1nc2ccccc2[nH]1`, the AC50 [3] is reported as 23.2 µM (active) and the AC50 [4] is reported as > 70 µM (inactive).

With `O=C(Nc1ccccc1N1CCN(C(=O)c2ccc(Cl)cc2)CC1)c1cccc([N+](=O)[O-])c1` the EC50 [5] was 0.376 µM (active), the EC50 [6] was > 60 µM (not active) and the EC50 [7] was 1.34 µM (active). The EC50 [8] was > 260 µM (inactive).

With `CC(C)Cc1cc(CN2CCCC(CO)(Cc3cccc(Cl)c3)C2)[nH]n1` (centres undefined) the EC50 [5] was 2.11 µM (active).

With `Cn1cccc1/C=N/N1CCN(Cc2ccccc2)CC1` the IC50 [9] was 17.6 µM (active).

With `COC(=O)c1ccc(COc2ccccc2/C=C(\C#N)C(=O)Nc2c(C)cccc2C)cc1` the AC50 [10] was 2.46 µM (active) and the AC50 [11] was 28.4 µM (active).

In the case of `CCn1nc(C)c(CN2CCCC(CO)(Cc3cccc(Cl)c3)C2)c1C` (centres undefined), the EC50 [5] is reported as 1.06 µM (active), the EC50 [6] is reported as > 30 µM (not active) and the EC50 [7] is reported as 0.247 µM (active).

For `Cc1ccc(N/N=C/c2ccc3c(c2)OCCO3)cc1Cl`, the EC50 [12] was 21 µM (active), the EC50 [1] was 40.1 µM (active) and the EC50 [13] was > 112 µM (not active).

With `CCC(=O)N(C)C[C@@H]1Oc2cc(C#Cc3ccccc3)ccc2S(=O)(=O)N([C@@H](C)CO)C[C@H]1C` the AC50 [14] was 26.2 µM (active) and the AC50 [15] was 30.3 µM (active).

In the case of `O=C(COc1ccc(-c2ccccc2)cc1)N/N=C/c1cc(O)ccc1Br`, the EC50 [16] is reported as 2.51 µM (active), the EC50 [17] is reported as 5.71 µM (active) and the AC50 [10] is reported as 4.31 µM (active). For the same molecule, the EC50 [18] was 4.98 µM (active).

With `Cc1cccc2[nH]c3c(N4CC=C(c5ccc(F)cc5)CC4)ncnc3c12` the EC50 [16] was 2.84 µM (active), the EC50 [17] was > 150 µM (not active) and the AC50 [10] was 6.48 µM (active). The EC50 [18] was 7.98 µM (active).

For `CC/C(=N\c1ccccc1O)C1=C(O)CC(c2ccccc2)CC1=O` (centres undefined), the IC50 [9] was 15.2 µM (active).
